Results on 69 sequences are retold here after patent US8865182B2 (priority 2009, dated 2014).

The test system of this experiment is HLA-A3 supertype (A*0301, A*1101, A*3101, A*3301, A*6801). It is filed as binding, human.
Take “ALANTIEVFR (Influenza Virus) [SEQ ID NO: 226]”: the “# Alleles Bound” value turned out to be 3.
Under “ALMEWLKTR (Influenza Virus) [SEQ ID NO: 73]” stands 5; under “ALTLNTMTK (Influenza Virus) [SEQ ID NO: 229]”, 2.
Under “AQMALQLFIK (Influenza Virus) [SEQ ID NO: 237]” stands 2; under ASCMGLIYNR [SEQ ID NO: 74], 4; under “ASYKIFKIEK (Influenza Virus) [SEQ ID NO: 95]”, 2.
To “ATTHSWIPK (Influenza Virus) [SEQ ID NO: 239]” belongs 4; to “ATTHSWIPKR (Influenza Virus) [SEQ ID NO: 240]”, 2.
As for “AVASGYDFER (Influenza Virus) [SEQ ID NO: 123]”, the “# Alleles Bound” value came out at 3.
Under “FQLIPMISK (Influenza Virus) [SEQ ID NO: 182]” stands 2.
To FSFGGFTFK [SEQ ID NO: 284] belongs 5; to “FSFGGFTFKR (Influenza Virus) [SEQ ID NO: 285]”, 5; to “GTFDTVQIIK (Influenza Virus) [SEQ ID NO: 291]”, 3.
To GTFEFTSFFY [SEQ ID NO: 235] belongs 4; to “GTFGPVHFR (Influenza Virus) [SEQ ID NO: 282]”, 5; to “GTMVMELIR (Influenza Virus) [SEQ ID NO: 121]”, 3.
Take “HIYYLEKANK (Influenza Virus) [SEQ ID NO: 178]”: the “# Alleles Bound” value worked out at 4.
Take “HQLLRHFQK (Influenza Virus) [SEQ ID NO: 288]”: the “# Alleles Bound” value is given as 3.
Under “IQNSITIER (Influenza Virus) [SEQ ID NO: 117]” stands 2; under “ITGFAPFSK (Influenza Virus) [SEQ ID NO: 93]”, 3.
Under “ITGWAIFSK (Influenza Virus) [SEQ ID NO: 94]” stands 3.
To “KFFPSSSYR (Influenza Virus) [SEQ ID NO: 243]” belongs 4; to “KFLLMDALK (Influenza Virus) [SEQ ID NO: 179]”, 2.
Consider “KFLPDLYDYK (Influenza Virus) [SEQ ID NO: 177]”, for which the “# Alleles Bound” value came to 2.
Under “KIPKTKNMKK (Influenza Virus) [SEQ ID NO: 181]” stands 2; under “KLLLIVQALR (Influenza Virus) [SEQ ID NO: 188]”, 3.
Under “KLVGINMSK (Influenza Virus) [SEQ ID NO: 233]” stands 2; under “KLVGINMSKK (Influenza Virus) [SEQ ID NO: 234]”, 2; under “KQIVERILK (Influenza Virus) [SEQ ID NO: 145]”, 2.
Consider KTNLYGFIIK [SEQ ID NO: 183], for which the “# Alleles Bound” value is recorded as 4.
KVYKTYFEK [SEQ ID NO: 281]: the “# Alleles Bound” value is 3.
Regarding “LFFKCIYRR (Influenza Virus) [SEQ ID NO: 83]”, the “# Alleles Bound” value turned out to be 4.
To “LLPFAAAPPK (Influenza Virus) [SEQ ID NO: 292]” belongs 4; to “LQLFIKDYR (Influenza Virus) [SEQ ID NO: 238]”, 3; to MITQFESLK [SEQ ID NO: 156], 3.
To “MQGSTLPRR (Influenza Virus) [SEQ ID NO: 120]” belongs 2; to “MTKEFFENK (Influenza Virus) [SEQ ID NO: 186]”, 5; to MVLSAFDER [SEQ ID NO: 118], 4.
To “MVMELIRMIK (Influenza Virus) [SEQ ID NO: 122]” belongs 4; to “MVTQRTIGK (Influenza Virus) [SEQ ID NO: 227]”, 4; to “MVTQRTIGKK (Influenza Virus) [SEQ ID NO: 228]”, 3.
Turning to “NLYGFIIKGR (Influenza Virus) [SEQ ID NO: 184]”, the “# Alleles Bound” value turned out to be 4.
Regarding “QTYDWTLNR (Influenza Virus) [SEQ ID NO: 225]”, the “# Alleles Bound” value is listed as 4.
Under “RIMEMIPER (Influenza Virus) [SEQ ID NO: 277]” stands 4; under “RLFFKCIYR (Influenza Virus) [SEQ ID NO: 81]”, 5.
To RLFFKCIYRR [SEQ ID NO: 82] belongs 5.
To “RTFFGWKEPY (Influenza Virus) [SEQ ID NO: 180]” belongs 3.
As for “SFGGFTFKR (Influenza Virus) [SEQ ID NO: 286]”, the “# Alleles Bound” value is listed as 4.
To “SFSFGGFTFK (Influenza Virus) [SEQ ID NO: 283]” belongs 5.
“SIAPIMFSNK (Influenza Virus) [SEQ ID NO: 231]”: the “# Alleles Bound” value was 4.
On to “SICNTTGVEK (Influenza Virus) [SEQ ID NO: 176]”, for which the “# Alleles Bound” value worked out at 4.
Under “SINELSNLAK (Influenza Virus) [SEQ ID NO: 294]” stands 3.
Under “SLMQGSTLPR (Influenza Virus) [SEQ ID NO: 119]” stands 4.
Under “SQDPTMLYNK (Influenza Virus) [SEQ ID NO: 290]” stands 2; under “STVHYPKVYK (Influenza Virus) [SEQ ID NO: 279]”, 4; under “SVQPTFSVQR (Influenza Virus) [SEQ ID NO: 124]”, 4.
Consider SVQRNLPFER [SEQ ID NO: 126], for which the “# Alleles Bound” value is 4.
To “TFEFTSFFYR (Influenza Virus) [SEQ ID NO: 236]” belongs 4; to “TIGECPKYVK (Influenza Virus) [SEQ ID NO: 66]”, 1.
Under “TLARSICEK (Influenza Virus) [SEQ ID NO: 230]” stands 3.
To “TQFESLKLYR (Influenza Virus) [SEQ ID NO: 157]” belongs 3.
Take “TTSTVHYPK (Influenza Virus) [SEQ ID NO: 278]”: the “# Alleles Bound” value was 5.
“TTVDHMAIIK (Influenza Virus) [SEQ ID NO: 275]”: the “# Alleles Bound” value is on record as 2.
Under “TVDHMAIIK (Influenza Virus) [SEQ ID NO: 276]” stands 2.
Turning to “TVHYPKVYK (Influenza Virus) [SEQ ID NO: 280]”, the “# Alleles Bound” value is on record as 5.
Under “VLRGFLILGK (Influenza Virus) [SEQ ID NO: 293]” stands 3; under “VLTGNLQTLK (Influenza Virus) [SEQ ID NO: 287]”, 2; under “VQPTFSVQR (Influenza Virus) [SEQ ID NO: 125]”, 3.
To “VVFCGTSGTY (Influenza Virus) [SEQ ID NO: 96]” belongs 2.
